SMILES strings stand for the structures. ≈ marks a conversion by molar mass, not a printed value.

A short description of data set [1]: Drug level in human plasma treated with [14C]4-[(1R,3aS,5aR,5bR,7aR,11aS,11bR,13aR,13bR)-3a-[2-(1,1-dioxo-1,4-thiazinan-4-yl)ethylamino]-1-isopropenyl-5a,5b,8,8,11a-pentamethyl-1,2,3,4,5,6,7,7a,11,11b,12,13,13a,13b-tetradecahydrocyclopenta[a]chrysen-9-yl]benzoic acid at 5 mg/kg, po administered via gavage by LC-MS/MS analysis. The format is ADME, organism-based. The settings on record: in vivo.

Data set [2] in a line: Drug level in Sprague-Dawley rat plasma treated with [14C]4-[(1R,3aS,5aR,5bR,7aR,11aS,11bR,13aR,13bR)-3a-[2-(1,1-dioxo-1,4-thiazinan-4-yl)ethylamino]-1-isopropenyl-5a,5b,8,8,11a-pentamethyl-1,2,3,4,5,6,7,7a,11,11b,12,13,13a,13b-tetradecahydrocyclopenta[a]chrysen-9-yl]benzoic acid by LC-MS/MS analysis. The format is ADME, cell-free.
Data set [3] is described as follows: Drug level in cynomolgus monkey plasma treated with [14C]4-[(1R,3aS,5aR,5bR,7aR,11aS,11bR,13aR,13bR)-3a-[2-(1,1-dioxo-1,4-thiazinan-4-yl)ethylamino]-1-isopropenyl-5a,5b,8,8,11a-pentamethyl-1,2,3,4,5,6,7,7a,11,11b,12,13,13a,13b-tetradecahydrocyclopenta[a]chrysen-9-yl]benzoic acid at 5 mg/kg, po administered via gavage by LC-MS/MS analysis. The class given is ADME, organism-based, Macaca fascicularis. The settings on record: in vivo.

Data set [4] is described as follows: Drug level in beagle dog plasma treated with [14C]4-[(1R,3aS,5aR,5bR,7aR,11aS,11bR,13aR,13bR)-3a-[2-(1,1-dioxo-1,4-thiazinan-4-yl)ethylamino]-1-isopropenyl-5a,5b,8,8,11a-pentamethyl-1,2,3,4,5,6,7,7a,11,11b,12,13,13a,13b-tetradecahydrocyclopenta[a]chrysen-9-yl]benzoic acid at 5 mg/kg, po administered via gavage by LC-MS/MS analysis. The format is ADME, organism-based, Canis lupus familiaris. Particulars: in vivo; call rule not given here.

A short description of data set [5]: in vitro. The settings on record: rat, liver microsomes. In general terms: Liver microsomes are vesicles of endoplasmic reticulum, rich in cytochrome P450 enzymes.
Description: Half life in rat liver microsomes at 0.5 uM after 1 hr in presence of NADPH by LC-MS/MS analysis
A short description of data set [6]: Dissociation constant, pKa of the compound. The class given is physicochemical.
Data set [7] relates to Human immunodeficiency virus 1. The data set is described as follows: microbe, parasite or virus in culture. The settings on record: Human immunodeficiency virus 1, MT2.
Description: Antiviral activity against HIV1 expressing gag delta V370 mutant infected in human MT2 cells after 4 to 5 days by dual luciferase reporter gene assay
The nature of data set [8]: in vitro. Particulars: human, MT2 cells.
Description: Cytotoxicity against human MT2 cells assessed as reduction in cell viability
Data set [9] concerns Human immunodeficiency virus 1. The experiment in a line: microbe, parasite or virus in culture. The settings on record: Human immunodeficiency virus 1, MT2. This is another data set of the same source.
Description: Antiviral activity against wild type HIV1 infected in human MT2 cells after 4 to 5 days by dual luciferase reporter gene assay
A short description of data set [10]: in vitro. Particulars: human, liver microsomes.
Description: Half life in human liver microsomes at 0.5 uM after 1 hr in presence of NADPH by LC-MS/MS analysis
For data set [11], the system named is Human immunodeficiency virus 1. The experiment in a line: microbe, parasite or virus in culture. The settings on record: Human immunodeficiency virus 1, MT2. This is another data set of the same source.
A short description of data set [12]: Solubility of compound in fed state simulated intestinal fluid at pH 5. The class given is physicochemical.
The nature of data set [13]: in vivo. The settings on record: Sprague-Dawley, rat, po, 5 mg/kg.
Data set [14] has as its system Human immunodeficiency virus 1. The experiment in a line: microbe, parasite or virus in culture. Particulars: Human immunodeficiency virus 1, MT2. The source holds these as a separate data set.
Description: Antiviral activity against wild type HIV1 infected in human MT2 cells after 4 to 5 days in presence of 10% FBS and 40% human serum albumin by dual luciferase reporter gene assay
The next data set in a line: physchem. Particulars: aqueous.
Data set [15] can be described thus: Solubility of compound in fasted state simulated intestinal fluid at pH 6.5. The format is physicochemical.
The test system of data set [16] is Human immunodeficiency virus 1. The experiment in a line: Ratio of EC50 for antiviral activity against wild type HIV1 infected in human MT2 cells after 4 to 5 days in presence of 10% FBS plus […] by dual luciferase reporter gene assay to EC50 for antiviral activity against wild type HIV1 infected in human MT2 cells after 4 to 5 days by dual luciferase reporter gene assay. The class given is functional.

Data set [17] in a line: in vivo. Particulars: Sprague-Dawley, rat, po, 5 mg/kg. This is another data set of the same source.

Description for physchem: Aqueous solubility of the compound

As to `C=C(C)[C@@H]1CC[C@]2(NCCN3CCS(=O)(=O)CC3)CC[C@]3(C)[C@H](CC[C@@H]4[C@@]5(C)CC=C(c6ccc(C(=O)OC)cc6)C(C)(C)[C@@H]5CC[C@]43C)[C@@H]12`, the Drug uptake result in data set [1], in data set [2], in data set [3] and in [4] was “Active” throughout.

As to `C=C(C)[C@@H]1CC[C@]2(NCCN3CCOCC3)CC[C@]3(C)[C@H](CC[C@@H]4[C@@]5(C)CC=C(c6ccc(C(=O)O)cc6)C(C)(C)[C@@H]5CC[C@]43C)[C@@H]12`, the half-life at 1 h, 0.5 µM in “in vitro [5]” and in the data set “in vitro [10]” was over 2 h throughout. Moreover, the pKa in data set [6] was 8.2. The half-maximal effective concentration (EC50) in [7] came out at 47.4 nM; in data set [9], 8.3 nM; in data set [11] it was 13.2 nM. The CC50 in “in vitro [8]” is over 10000 nM.

As for `C=C(C)[C@@H]1CC[C@]2(N)CC[C@]3(C)[C@H](CC[C@@H]4[C@@]5(C)CC=C(c6ccc(C(=O)O)cc6)C(C)(C)[C@@H]5CC[C@]43C)[C@@H]12`, the Drug uptake result in data set [1], in data set [2], in [3] and in [4] was “Active” each time.

For the molecule `C=C(C)[C@@H]1CC[C@]2(NCCN3CCS(=O)(=O)CC3)CC[C@]3(C)[C@H](CC[C@@H]4[C@@]5(C)CC=C(c6ccc(C(=O)O)c(F)c6)C(C)(C)[C@@H]5CC[C@]43C)[C@@H]12`, the half-life at 1 h, 0.5 µM in the data set “in vitro [5]” and in the data set “in vitro [10]” was over 2 h throughout. The EC50 is 9.7 nM in data set [7], 2.8 nM in data set [9], 12.8 nM in data set [14] and 3.4 nM in data set [11]. The results for the solubility (in [12]; in “physchem”; in data set [15]) were 330 µg/mL (≈ 465 µM), under 1 µg/mL and 140 µg/mL (≈ 197 µM), respectively. This molecule displayed an AUC(0-t) at 24 h in the data set “in vivo [13]” of 24.3 µM·h. This molecule also yielded a CC50 in the data set “in vitro [8]” of 7800 nM.

For `C=C(C)[C@@H]1CC[C@]2(CNCCCN3CCS(=O)(=O)CC3)CC[C@]3(C)[C@H](CC[C@@H]4[C@@]5(C)CC=C(c6ccc(C(=O)O)cc6)C(C)(C)[C@@H]5CC[C@]43C)[C@@H]12`, the half-life at 1 h, 0.5 µM in “in vitro [5]” and in “in vitro [10]” was over 2 h in each case. Besides, the pKa in data set [6] was 5.4. This molecule gave an AUC(0-t) at 24 h in “in vivo [13]” of 3.15 µM·h.

`C=C(C)[C@@H]1CC[C@]2(NCCN3CCCS(=O)(=O)CC3)CC[C@]3(C)[C@H](CC[C@@H]4[C@@]5(C)CC=C(c6ccc(C(=O)O)cc6)C(C)(C)[C@@H]5CC[C@]43C)[C@@H]12`: the half-life at 1 h, 0.5 µM in “in vitro [5]” and in the data set “in vitro [10]” was over 2 h in each case. Moreover, half-maximal cytotoxicity in “in vitro [8]” (CC50) was put at 4900 nM. Further, the EC50 stood at 3.6 nM in [9] and 35.1 nM in [14]. Moreover, the “Ratio EC50” value in data set [16] is listed as 9.7.

For `C=C(C)[C@@H]1CC[C@]2(NCCN3C[C@@H]4C[C@H]3CS4(=O)=O)CC[C@]3(C)[C@H](CC[C@@H]4[C@@]5(C)CC=C(c6ccc(C(=O)O)cc6)C(C)(C)[C@@H]5CC[C@]43C)[C@@H]12`, the half-life at 1 h, 0.5 µM in the data set “in vitro [5]” and in “in vitro [10]” was over 2 h throughout. The EC50 was 7.7 nM in data set [7], 1.9 nM in data set [9], 11.1 nM in data set [14] and 2.8 nM in data set [11]. Besides, the AUC(0-t) at 24 h in the data set “in vivo [13]” came out at 27 µM·h. This molecule also came in with a CC50 in the data set “in vitro [8]” of 7340 nM. The solubility in “physchem” was under 1 µg/mL.

For `C=C(C)[C@@H]1CC[C@]2(NCCN3CCS(=N)(=O)CC3)CC[C@]3(C)[C@H](CC[C@@H]4[C@@]5(C)CC=C(c6ccc(C(=O)O)cc6)C(C)(C)[C@@H]5CC[C@]43C)[C@@H]12`, the half-life at 1 h, 0.5 µM in the data set “in vitro [5]” and in the data set “in vitro [10]” was over 2 h in each case. The EC50 in data set [7] stood at 7.5 nM; in data set [9] it was 1.1 nM; in [11], 1.5 nM. The molecule further displayed an AUC(0-t) at 24 h in “in vivo [13]” of 20.7 µM·h. Further, the CC50 in the data set “in vitro [8]” was determined as 14000 nM. In “physchem”, the solubility was under 1 µg/mL.

As for `C=C(C)[C@@H]1CC[C@]2(NCCCN3CCS(=O)(=O)CC3)CC[C@]3(C)[C@H](CC[C@@H]4[C@@]5(C)CC=C(c6ccc(C(=O)O)cc6)C(C)(C)[C@@H]5CC[C@]43C)[C@@H]12`, the half-life at 1 h, 0.5 µM in the data set “in vitro [5]” and in the data set “in vitro [10]” was over 2 h in each case. Also, the EC50 worked out at 37.3 nM in data set [7], 3.5 nM in data set [9], 23.6 nM in [14] and 7.5 nM in data set [11]. The same molecule yielded an AUC(0-t) at 24 h in the data set “in vivo [13]” of 9.61 µM·h. Besides, the CC50 in “in vitro [8]” stood at 15800 nM. The same molecule yielded an AUC(0-t) at 6 h in the data set “in vivo [17]” of 9.36 µM·h.

Regarding `C=C(C)[C@@H]1CC[C@]2(C(=O)NCCCN3CCS(=O)(=O)CC3)CC[C@]3(C)[C@H](CC[C@@H]4[C@@]5(C)CC=C(c6ccc(C(=O)O)cc6)C(C)(C)[C@@H]5CC[C@]43C)[C@@H]12`, the half-life at 1 h, 0.5 µM in the data set “in vitro [5]” and in “in vitro [10]” was over 2 h in each case. Besides, the values for the EC50 in data set [7], in [9] and in data set [11] were 42.8 nM, 2.1 nM and 1.4 nM, respectively. Moreover, in the data set “in vitro [8]”, the midpoint of cytotoxicity, the CC50, lay at 10600 nM. In the data set “in vivo [17]”, this molecule returned an AUC(0-t) at 6 h of 1.28 µM·h.

As to `C=C(C)[C@@H]1CC[C@]2(NCCN3CCN(S(C)(=O)=O)CC3)CC[C@]3(C)[C@H](CC[C@@H]4[C@@]5(C)CC=C(c6ccc(C(=O)O)cc6)C(C)(C)[C@@H]5CC[C@]43C)[C@@H]12`, the half-life at 1 h, 0.5 µM in the data set “in vitro [5]” and in “in vitro [10]” was over 2 h throughout. The EC50 was determined as 27.2 nM in data set [7], 3.3 nM in data set [9], 26.1 nM in data set [14] and 5.2 nM in [11]. This molecule also displayed an AUC(0-t) at 24 h in “in vivo [13]” of 28.6 µM·h. Moreover, it took 10700 nM to reach half-maximal cytotoxicity in the data set “in vitro [8]” (CC50). The molecule also had a solubility in the data set “physchem” of under 1 µg/mL.

Consider `C=C(C)[C@@H]1CC[C@]2(NCCN3CCC(F)(F)CC3)CC[C@]3(C)[C@H](CC[C@@H]4[C@@]5(C)CC=C(c6ccc(C(=O)O)cc6)C(C)(C)[C@@H]5CC[C@]43C)[C@@H]12`, for which the half-life at 1 h, 0.5 µM in the data set “in vitro [5]” and in “in vitro [10]” was over 2 h each time. The molecule also returned a pKa in data set [6] of 8.5. Besides, the EC50 in [7] came to 67.5 nM; in data set [9], 5.1 nM; in data set [11], 14.1 nM. The molecule also showed a half-maximal cytotoxic concentration (CC50) in “in vitro [8]” of over 10000 nM.

One may read the half-life as how long it takes for the measured level to halve. Broadly, the pKa is the negative logarithm of the acid dissociation constant. Usually EC50 stands for the concentration giving half of the maximal effect. A word on the CC50: it is the concentration at which the toxic effect on the cells reaches its halfway point. What is called solubility is the dissolved amount per volume that the medium holds. Usually AUC(0-t) stands for the area under the concentration-time curve up to a stated or last time point.

These data come from ChEMBL document CHEMBL4152347 (J Med Chem, 2018).
